Measured values as given in patent publication US4399132A, “7-Beta-[alpha-syn-methoxyimino-alpha-(2-aminothiazol-4-yl)-aceta mido]-3-[(1,2,3-thiadiazol-5-ylthio)methyl]-3-cephem-4-carboxylic acid and C1 -C6 alkyl derivatives thereof” (American Cyanamid Company, priority 1981, dated 1983).
Where two headings read alike, the source gives them in different places.

Legend:
Klebsiella pneumoniae = test: Mueller-Hinton agar dilution method (MIC); format: cell-based; settings: for MIC: Klebsiella pneumoniae
Klebsiella oxytoca = test: Mueller-Hinton agar dilution method (MIC); format: cell-based; settings: read-out: Minimal Inhibitory Concentration
Enterobacter aerogenes = test: Mueller-Hinton agar dilution method (MIC); format: cell-based; settings: Klebsiella aerogenes
Enterobacter cloacae = test: Mueller-Hinton agar dilution method (MIC); format: cell-based
Serratia marcescens = test: Mueller-Hinton agar dilution method (MIC); format: cell-based; settings: read-out: Minimal Inhibitory Concentration
Proteus morganii = test: Mueller-Hinton agar dilution method (MIC); format: cell-based; settings: Morganella morganii, read-out: Minimal Inhibitory Concentration
Proteus rettgeri = test: Mueller-Hinton agar dilution method (MIC); format: cell-based; settings: Providencia rettgeri, read-out: Minimal Inhibitory Concentration
Providencia stuartti = test: Mueller-Hinton agar dilution method (MIC); format: cell-based; settings: read-out: Minimal Inhibitory Concentration
Escherichia coli [1] = test: Mueller-Hinton agar dilution method (MIC); format: cell-based; settings: read-out: Minimal Inhibitory Concentration
Salmonella sp. = test: Mueller-Hinton agar dilution method (MIC); format: cell-based; settings: read-out: Minimal Inhibitory Concentration
Source text: (§1) The results appear in Tables I, II, and III.

Salmonella (arizona) = test: Mueller-Hinton agar dilution method (MIC); format: cell-based; settings: read-out: Minimal Inhibitory Concentration
Citrobacter sp. = test: Mueller-Hinton agar dilution method (MIC); format: cell-based; settings: read-out: Minimal Inhibitory Concentration
Acinetobacter sp. = test: Mueller-Hinton agar dilution method (MIC); format: cell-based; settings: read-out: Minimal Inhibitory Concentration
Pseudomonas aeruginosa = test: Mueller-Hinton agar dilution method (MIC); format: cell-based
Enterococcus sp. = test: Mueller-Hinton agar dilution method (MIC); format: cell-based; settings: for MIC: Enterococcus
Staphylococcus aureus [2] = test: Mueller-Hinton agar dilution method (MIC); format: cell-based
Escherichia coli [3] = test: control of systemic lethal infections in mice; format: in vivo, mice (Charles River Laboratories CD-1 strain female); settings: sc, 168 h, strain 311, subcutaneous 30 min after i.p. infection, survival at 7 days, three tests pooled, 95% confidence limits (0.28-0.44), read-out: Median Effective Dose (ED50)
Experimental: (§2) The test employed used Charles River Laboratories CD-1 strain female mice each weighing 20+2 grams. The mice were infected by intraperitoneal injection of sufficient bacteria (see Table 2), contained in either 0.5 ml. of 5% mucin (S. aureus strains) or broth (S. pyogenes or E. coli), to kill 95-100% of untreated mice within 48 hours.
(§3) The mice were treated by subcutaneous injection 30 minutes after infection with the test drug at varying doses contained in 0.5 ml. of 0.2% aqueous agar. Survival ratios seven days after infection were recorded.

Staphylococcus aureus [4] = test: control of systemic lethal infections in mice; format: in vivo, mice (Charles River Laboratories CD-1 strain female); settings: sc, 168 h, survival at 7 days, three tests pooled, read-out: Median Effective Dose (ED50)
Experimental: as §2, §3

Staphylococcus pyogenes = test: control of systemic lethal infections in mice; format: in vivo, mice (Charles River Laboratories CD-1 strain female); settings: Staphylococcus aureus, sc, 168 h; strain C 203; subcutaneous 30 min after i.p. infection; survival at 7 days; three tests pooled; 95% confidence limits (0.08-0.13); read-out: Median Effective Dose (ED50)
Experimental: as §2, §3

Micrococcus luteus = test: Mueller-Hinton agar dilution method (MIC); format: cell-based; settings: read-out: Minimal Inhibitory Concentration
Source text: as §1

CO/N=C(\C(=O)N[C@@H]1C(=O)N2C(C(=O)O)=C(CSc3cnns3)CS[C@H]12)c1csc(N)n1 [Compound Ia, 7 beta-[alpha-syn-methoxyimino-alpha-(2-aminothiazol-4-yl)acetamido]-3-[(1,2,3-thiadiazol-5-ylthio)methyl]-3-cephem-4-carboxylic acid]
.015 µg/mL: Minimal Inhibitory Concentration (Klebsiella pneumoniae; strain SSC-78-1, Table I)
16 µg/mL: MIC (Acinetobacter sp.; strain K-77-6, Table I) | MIC (Acinetobacter sp.; strain STFD-79-17, Table I)
0.12 µg/mL: MIC (Enterobacter cloacae; strain K-81-46, Table I, read-out: Minimal Inhibitory Concentration) | MIC (Serratia marcescens; strain K-81-39, Table I) | MIC (Staphylococcus aureus [2]; beta-lactamase negative, strain SSC 79-3, Table II, read-out: Minimal Inhibitory Concentration) | MIC (Staphylococcus aureus [2]; beta-lactamase negative, strain SSC 79-7, Table II, read-out: Minimal Inhibitory Concentration) | MIC (Staphylococcus aureus [2]; beta-lactamase negative, strain SSC 79-9, Table II, read-out: Minimal Inhibitory Concentration) | MIC (Staphylococcus aureus [2]; beta-lactamase negative, strain SSC 79-10, Table II, read-out: Minimal Inhibitory Concentration) | MIC (Staphylococcus aureus [2]; beta-lactamase negative, strain SSC 79-11, Table II, read-out: Minimal Inhibitory Concentration) | MIC (Staphylococcus aureus [2]; beta-lactamase positive, strain SSC 79-44, Table II, read-out: Minimal Inhibitory Concentration)
128 µg/mL: MIC (Pseudomonas aeruginosa; strain TUL-78-2, Table I, read-out: Minimal Inhibitory Concentration)
0.25 µg/mL: MIC (Enterobacter cloacae; strain K-79-16, Table I, read-out: Minimal Inhibitory Concentration) | MIC (Salmonella sp.; strain SSC-79-57, Table I) | MIC (Staphylococcus aureus [2]; beta-lactamase negative, strain SSC 79-17, Table II, read-out: Minimal Inhibitory Concentration) | MIC (Staphylococcus aureus [2]; beta-lactamase positive, strain SSC 79-27, Table II, read-out: Minimal Inhibitory Concentration) | MIC (Staphylococcus aureus [2]; beta-lactamase positive, strain SSC 79-28, Table II, read-out: Minimal Inhibitory Concentration) | MIC (Staphylococcus aureus [2]; beta-lactamase positive, strain SSC 79-36, Table II, read-out: Minimal Inhibitory Concentration) | MIC (Staphylococcus aureus [2]; beta-lactamase positive, strain SSC 79-38, Table II, read-out: Minimal Inhibitory Concentration) | MIC (Staphylococcus aureus [2]; beta-lactamase positive, strain SSC 79-39, Table II, read-out: Minimal Inhibitory Concentration) | MIC (Staphylococcus aureus [2]; beta-lactamase positive, strain SSC 79-47, Table II, read-out: Minimal Inhibitory Concentration) | MIC (Staphylococcus aureus [2]; strain SSC-79-18, Table I, read-out: Minimal Inhibitory Concentration) | MIC (Staphylococcus aureus [2]; strain Smith, Table I, read-out: Minimal Inhibitory Concentration)
0.1 mg/kg: ED50 (Staphylococcus pyogenes)
6.1 mg/kg: ED50 (Staphylococcus aureus [4]; strain Fu-79-2, subcutaneous 30 min after i.p. infection, 95% confidence limits (4.4-8.4))
0.03 µg/mL: MIC (Klebsiella oxytoca; strain K-81-6, Table I) | MIC (Enterobacter aerogenes; strain STFD-79-14, Table I, read-out: Minimal Inhibitory Concentration) | MIC (Escherichia coli [1]; strain #311, Table I) | MIC (Salmonella (arizona); strain QHC-77-3, Table I) | MIC (Citrobacter sp.; strain K-81-27, Table I)
0.5 µg/mL: MIC (Staphylococcus aureus [2]; beta-lactamase negative, strain SSC 79-5, Table II, read-out: Minimal Inhibitory Concentration) | MIC (Staphylococcus aureus [2]; beta-lactamase negative, strain SSC 79-14, Table II, read-out: Minimal Inhibitory Concentration) | MIC (Staphylococcus aureus [2]; beta-lactamase negative, strain SSC 79-15, Table II, read-out: Minimal Inhibitory Concentration) | MIC (Staphylococcus aureus [2]; beta-lactamase positive, strain SSC 79-41, Table II, read-out: Minimal Inhibitory Concentration) | MIC (Staphylococcus aureus [2]; strain FU-79-19-2, Table I, read-out: Minimal Inhibitory Concentration) | MIC (Staphylococcus aureus [2]; strain SSC-80-15, Table I, read-out: Minimal Inhibitory Concentration)
0.06 µg/mL: MIC (Providencia stuartti; strain K-81-29, Table I) | MIC (Escherichia coli [1]; strain K-81-14, Table I)
2.9 mg/kg: ED50 (Staphylococcus aureus [4]; strain Smith, subcutaneous 30 min after i.p. infection, 95% confidence limits (2.4-3.6))
1 µg/mL: MIC (Serratia marcescens; strain QHC-77-2, Table I) | MIC (Serratia marcescens; strain TUL-78-15, Table I)
0.35 mg/kg: ED50 (Escherichia coli [3])
32 µg/mL: MIC (Pseudomonas aeruginosa; strain 12-4-4, Table I, read-out: Minimal Inhibitory Concentration) | MIC (Enterococcus sp.; strain OSU-75-1, Table I, read-out: Minimal Inhibitory Concentration) | Minimal Inhibitory Concentration (Enterococcus sp.; strain SM-77-15, Table I)
64 µg/mL: MIC (Pseudomonas aeruginosa; strain SSC-78-13, Table I, read-out: Minimal Inhibitory Concentration)
4 µg/mL: MIC (Proteus morganii; strain K-77-3, Table I) | MIC (Acinetobacter sp.; strain K-77-1, Table I) | MIC (Staphylococcus aureus [2]; beta-lactamase positive, strain SSC 79-24, Table II, read-out: Minimal Inhibitory Concentration)
0.015 µg/mL: MIC (Klebsiella pneumoniae; strain STFD-79-16, Table I, read-out: Minimal Inhibitory Concentration) | MIC (Proteus morganii; strain K-79-25, Table I) | MIC (Proteus rettgeri; strain N-76-1, Table I) | MIC (Escherichia coli [1]; strain STFD-79-20, Table I)

CC(=O)OCC1=C(C(=O)O)N2C(=O)[C@@H](NC(=O)Cc3cccs3)[C@H]2SC1 [II]
> 128 µg/mL: MIC (Enterobacter aerogenes; read-out: Minimal Inhibitory Concentration, strain STFD-79-14, Table III) | MIC (Enterobacter cloacae; read-out: Minimal Inhibitory Concentration, strain K-79-16, Table I) | MIC (Enterobacter cloacae; read-out: Minimal Inhibitory Concentration, strain K-79-16, Table III) | MIC (Serratia marcescens) | MIC (Proteus morganii) | MIC (Proteus rettgeri) | MIC (Providencia stuartti) | MIC (Acinetobacter sp.) | MIC (Pseudomonas aeruginosa; ATCC27853, read-out: Minimal Inhibitory Concentration) | MIC (Pseudomonas aeruginosa; read-out: Minimal Inhibitory Concentration)
16 µg/mL: MIC (Enterococcus sp.; read-out: Minimal Inhibitory Concentration, strain OSU-75-1, Table III) | MIC (Enterococcus sp.; read-out: Minimal Inhibitory Concentration, strain SM-77-15, Table III)
0.25 µg/mL: MIC (Staphylococcus aureus [2]; read-out: Minimal Inhibitory Concentration, strain SSC-79-18, Table I)
4 µg/mL: MIC (Escherichia coli [1]; strain #311, Table I) | MIC (Escherichia coli [1]; strain #311, Table III) | MIC (Escherichia coli [1]; strain STFD-79-20, Table I)
32 µg/mL: MIC (Enterococcus sp.; read-out: Minimal Inhibitory Concentration, strain OSU-75-1, Table I) | MIC (Enterococcus sp.; read-out: Minimal Inhibitory Concentration, strain SM-77-15, Table I)
2 µg/mL: MIC (Klebsiella oxytoca) | MIC (Escherichia coli [1]; ATCC25922, strain ATCC 25922, Table III) | MIC (Escherichia coli [1]; strain STFD-79-20, Table III) | MIC (Salmonella (arizona))
0.12 µg/mL: MIC (Staphylococcus aureus [2]; read-out: Minimal Inhibitory Concentration, strain FU-79-19-2, Table III) | MIC (Staphylococcus aureus [2]; read-out: Minimal Inhibitory Concentration, strain SSC-79-18, Table III) | MIC (Staphylococcus aureus [2]; read-out: Minimal Inhibitory Concentration, strain Smith, Table I)
128 µg/mL: MIC (Enterobacter aerogenes; read-out: Minimal Inhibitory Concentration, strain STFD-79-14, Table I)
64 µg/mL: MIC (Enterobacter cloacae; read-out: Minimal Inhibitory Concentration, strain K-81-46, Table I) | MIC (Escherichia coli [1]; strain K-81-14, Table I) | MIC (Salmonella sp.; strain SSC-79-57, Table III)
1 µg/mL: MIC (Klebsiella pneumoniae; read-out: Minimal Inhibitory Concentration, strain SSC-78-1, Table I) | MIC (Klebsiella pneumoniae; read-out: Minimal Inhibitory Concentration, strain SSC-78-1, Table III) | MIC (Klebsiella pneumoniae; read-out: Minimal Inhibitory Concentration, strain STFD-79-16, Table I) | MIC (Citrobacter sp.)
0.5 µg/mL: MIC (Klebsiella pneumoniae; read-out: Minimal Inhibitory Concentration, strain STFD-79-6, Table III) | MIC (Staphylococcus aureus [2]; read-out: Minimal Inhibitory Concentration, strain FU-79-19-2, Table I) | MIC (Staphylococcus aureus [2]; read-out: Minimal Inhibitory Concentration, strain SSC-80-15, Table I) | MIC (Staphylococcus aureus [2]; read-out: Minimal Inhibitory Concentration, strain SSC-80-15, Table III)
≤ 0.03 µg/mL: MIC (Escherichia coli [1]; strain ESS 22-31, Table III)
0.03 µg/mL: MIC (Klebsiella pneumoniae; read-out: Minimal Inhibitory Concentration, strain AD, Table III) | MIC (Micrococcus luteus) | MIC (Staphylococcus aureus [2]; read-out: Minimal Inhibitory Concentration, strain Smith, Table III)
